{"source": "patent US10065943B2", "about": "“Pyrrolidine derivatives as angiotensin II type 2 antagonists” (NOVARTIS AG, priority 2015, dated 2018)", "key": {"[1]": {"test": "Human hepatocyte stability assay", "format": "in vitro ADME", "details": "cryopreserved hepatocytes, 1 μM test compound, 0.5 million cells/mL, pH 7.4, 37° C., 60 min; for half-life at 1 μM: read-out: T½", "procedure": "A human hepatocyte (cryopreserved) incubation mixture containing, 0.5 million cells/mL and phosphate buffered saline (pH 7.4) was pre-incubated at 37° C. and the reaction then initiated by the addition of 1 μM test compound. The incubations were performed in duplicate. The final organic concentration was 1% (consisting of 90% acetonitrile and 10% DMSO). Positive control markers for Phase I and II metabolism were included. Samples were removed at 6 time-points over 60 min and each reaction terminated by the addition of methanol containing internal standard. After vortexing and centrifugation, the resultant supernatant was analysed by UPLC-MS.\nIntrinsic clearance is calculated from the resulting concentration-time profile.\nWhere C(t) is the compound concentration at time t, C(0) is the starting concentration and k is the elimination rate constant.\nThe ln(concentration) vs time profile can be mathematically described by: ln C(t)=ln C(0)−kt\nWhere k represents the slope of the regression line.\nSolving for k results in:\nOnce k is known, half-life (t½) can be calculated using: […]\nFurthermore, CLint can be calculated by introducing the cell density ([cell]) in 10^6/ml: […]"}, "human AT2 receptor": {"molecular_target": "T1, human AT2 receptor (Homo sapiens, UniProt P50052)", "T1 construct": "membranes prepared in house", "T1 sequence (P50052 1-363)": "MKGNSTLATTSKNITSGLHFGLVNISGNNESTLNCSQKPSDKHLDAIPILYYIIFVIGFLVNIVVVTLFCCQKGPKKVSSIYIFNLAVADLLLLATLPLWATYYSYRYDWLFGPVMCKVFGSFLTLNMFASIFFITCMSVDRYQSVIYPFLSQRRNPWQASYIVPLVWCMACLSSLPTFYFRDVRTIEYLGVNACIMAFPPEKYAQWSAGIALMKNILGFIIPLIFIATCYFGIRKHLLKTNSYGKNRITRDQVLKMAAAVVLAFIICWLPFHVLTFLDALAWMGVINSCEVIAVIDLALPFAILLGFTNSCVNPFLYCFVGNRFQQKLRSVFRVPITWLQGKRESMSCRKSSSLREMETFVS", "test": "AT2 receptor binding ([125I]CGP 42112A displacement, CHO-K1 membranes)", "excerpt": "Reagents were purchased from Sigma-Aldrich, unless otherwise specified. Dialyzed fetal bovine serum (FBS) was from Life Technologies (cat. no. 10073772). Valiscreen® human angiotensin AT2 receptor cell line (cat. no. ES-070-C), [^125I]CGP 42112A (cat. no. NEX324025UC) and MicroScint™ 40 (cat. no. 6013641) were purchased from PerkinElmer. CGP 42112A (cat. no. 2569) and PD 123,319 ditrifluoroacetate (cat. no. 1361) were from Tocris Biosciences.\n• 1. Growth medium • EX-CELL® CHO DHFR^− medium • 10% FBS, dialysed • 1 mM sodium pyruvate • 2 mM L-glutamine • 2. Harvesting buffer • PBS • 2 mM EDTA • 3. Suspension buffer • 50 mM Tris-HCl, pH 7.4 • 10 mM EDTA • 4. Resuspension buffer • 50 mM Tris-HCl, pH 7.4 • 0.1 mM EDTA • 0.1% sucrose • 5. Binding assay buffer • 50 mM Tris-HCl, pH 7.4 • 5 mM MgCl2 • 1 mM EDTA • 0.1% gelatin • 6. Wash buffer • 50 mM Tris-HCl, pH 7.4 Procedure for Membrane Preparation • Valiscreen® CHO-K1 cells stably expressing the human AT2 receptor were cultured in growth medium. • Cells were seeded into T-175 flasks and grown to 70-80% confluence. • Medium was removed from confluent flasks and cells were washed with warm PBS. • Cells were harvested by incubating with harvesting buffer for 10 min at 37° C., and then transferred to a centrifuge tube on ice. • Cells were centrifuged at 200 g for 5 min at 4° C. • Cell pellets were homogenised in ice-cold suspension buffer. • Homogenates were centrifuged at 40,000 g for 15 min at 4° C. • Pellets were resuspended in ice-cold resuspension buffer and centrifuged at 40,000 g for 15 min at 4° C. • Final pellets were homogenised in ice-cold resuspension buffer. • Protein concentrations were determined by BCA assay method with BSA as standard. Compound Preparation\nCompounds were prepared from 10 mM stock solutions in 100% DMSO. Dilutions were made using electronic multichannel pipettes.\n• Compounds dilutions were prepared in 100% DMSO at 100× final assay concentration. • Compounds were diluted in 100% DMSO to the appropriate maximal concentration. • 30 μL compound was added to row A. • 21.6 μL of 100% DMSO was added to rows B-H. • Transfer 10 μL from row A into row B (half log dilution). • Transfer 10 μL from row B into row C (half log dilution). • Transfer 10 μL from row C into row D (half log dilution). • Transfer 10 μL from row D into row E (half log dilution). • Transfer 10 μL from row E into row F (half log dilution). • Transfer 10 μL from row F into row G (half log dilution). • Transfer 10 μL from row G into row H (half log dilution). Working Plate Preparation (96-Well Plate) • Compounds were diluted 10-fold in assay buffer. • 10 μL compound solution from dose plate was transferred to corresponding well of working plate. • 90 μL assay buffer was added to the wells of working plate. • Working solutions contained 10% DMSO in assay buffer (1% DMSO final assay concentration). Controls • Total binding (high control) was determined in the absence of unlabelled ligand. A solution of 10% DMSO in assay buffer was prepared. • Non-specific binding (low control) was determined in the presence of a vast excess (10 μM) of PD 123,319. 1 mM stock solution of PD 123,319 in water was diluted 10-fold with 10% DMSO in assay buffer. Assay Plate Preparation (96-Well Plate)\n15 μL compound solution was transferred to duplicate wells of assay plate. 5 compounds were tested per plate. 15 μL control solutions were transferred to columns 1 and 12 of assay plate."}, "[2]": {"details": "[125I]CGP 42112A 0.05 nM, membranes of CHO-K1 cells expressing human AT2 receptor, Ki from IC50 by Cheng-Prussoff equation, read-out: Ki"}}, "note": "Read-outs that look alike come from different tables or passages of the source. Where a SMILES comes first, the peptide text is derived from it. Side-chain parts run from the residue outwards. The star is where a group is joined. Nicotinoyl = O=C(c1cccnc1)*; Cbz = O=C(OCc1ccccc1)*", "data": [{"smiles": "O=C(NS(=O)(=O)C1CC1)[C@@H]1C[C@H](N2CCCOc3cc(F)c(F)cc32)CN1C(=O)C(c1ccccc1)c1ccccc1", "note": "[Compound 36, (2S,4S)—N-(Cyclopropylsulfonyl)-4-(7,8-difluoro-3,4-dihydrobenzo[b][1,4]oxazepin-5(2H)-yl)-1-(2,2-diphenylacetyl)pyrrolidine-2-carboxamide]", "values": [{"measurement": "hepatocyte CLint at 1 μM", "setting": "[1]", "value": "< 3", "unit": "µL/min/1e6 cells"}, {"measurement": "half-life at 1 μM", "setting": "[1]", "value": "> 460", "unit": "min"}, {"measurement": "Ki", "setting": "human AT2 receptor; [2]", "value": 2.6, "unit": "nM"}]}, {"smiles": "C[C@@]1(C(=O)O)C[C@H](N2CCCOc3cc(F)c(F)cc32)CN1C(=O)C(c1ccccc1)c1ccccc1", "note": "[Compound 32, (2S,4S)-4-(7,8-Difluoro-3,4-dihydrobenzo[b][1,4]oxazepin-5(2H)-yl)-1-(2,2-diphenylacetyl)-2-methylpyrrolidine-2-carboxylic acid]", "values": [{"measurement": "hepatocyte CLint at 1 μM", "setting": "[1]", "value": "< 3", "unit": "µL/min/1e6 cells"}, {"measurement": "half-life at 1 μM", "setting": "[1]", "value": "> 460", "unit": "min"}, {"measurement": "Ki", "setting": "human AT2 receptor; [2]", "value": 3.7, "unit": "nM"}]}, {"smiles": "O=C(O)[C@@H]1C[C@H](N2CCCS(=O)(=O)c3ccccc32)CN1C(=O)C(c1ccccc1)c1ccccc1", "note": "[Compound 34, (2S,4S)-4-(1,1-Dioxido-3,4-dihydrobenzo[b][1,4]thiazepin-5(2H)-yl)-1-(2,2-diphenylacetyl)pyrrolidine-2-carboxylic acid]", "values": [{"measurement": "Ki", "setting": "human AT2 receptor; [2]", "value": 10, "unit": "nM"}]}, {"smiles": "O=C(NS(=O)(=O)C1CC1)[C@@H]1C[C@H](N2CCCOc3cc(F)ccc32)CN1C(=O)C(c1ccccc1)c1ccccc1", "note": "[Compound 38, (2S,4S)—N-(Cyclopropylsulfonyl)-1-(2,2-diphenylacetyl)-4-(8-fluoro-3,4-dihydrobenzo[b][1,4]oxazepin-5(2H)-yl)pyrrolidine-2-carboxamide]", "values": [{"measurement": "Ki", "setting": "human AT2 receptor; [2]", "value": 6, "unit": "nM"}]}, {"smiles": "C[C@@]1(C(=O)O)C[C@H](N2CCCCc3ccccc32)CN1C(=O)C(c1ccccc1)c1ccccc1", "note": "[Compound 30, (2S,4S)-1-(2,2-Diphenylacetyl)-2-methyl-4-(2,3,4,5-tetrahydro-1H-benzo[b]azepin-1-yl)pyrrolidine-2-carboxylic acid]", "values": [{"measurement": "Ki", "setting": "human AT2 receptor; [2]", "value": 3.3, "unit": "nM"}]}, {"smiles": "O=C(O)[C@@H]1C[C@H](N2CCCCc3cccnc32)CN1C(=O)C(c1ccccc1)c1ccccc1", "note": "[Compound 12, (2S,4S)-1-(2,2-Diphenylacetyl)-4-(5,6,7,8-tetrahydro-9H-pyrido[2,3-b]azepin-9-yl)pyrrolidine-2-carboxylic acid]", "values": [{"measurement": "Ki", "setting": "human AT2 receptor; [2]", "value": 81, "unit": "nM"}]}, {"smiles": "Cc1ccc2c(c1)N([C@H]1C[C@@H](C(=O)O)N(C(=O)C(c3ccccc3)c3ccccc3)C1)CCCC2", "note": "[Compound 3, (2S,4S)-1-(2,2-Diphenylacetyl)-4-(8-methyl-2,3,4,5-tetrahydro-1H-benzo[b]azepin-1-yl)pyrrolidine-2-carboxylic acid]", "values": [{"measurement": "Ki", "setting": "human AT2 receptor; [2]", "value": 34, "unit": "nM"}]}, {"smiles": "CC[C@H](C)[C@H](NC(=O)[C@@H]1CCCN1C(=O)[C@H](Cc1c[nH]cn1)NC(=O)[C@H](CCCCNC(=O)[C@H](CCCN=C(N)N)NC(=O)OCc1ccccc1)NC(=O)[C@H](Cc1ccc(O)cc1)NC(=O)c1cccnc1)C(=O)O", "note": "[CGP 42112A, reference compound] (Nicotinoyl-YK([Arg-Cbz])HPI-OH)", "values": [{"measurement": "Ki", "setting": "human AT2 receptor; standard compounds, mean±S.E.M., read-out: Dissociation constants (pKi) (converted)", "value": 0.178, "unit": "nM"}]}, {"smiles": "C[C@@]1(C(=O)O)C[C@H](N2CCCCc3cc(F)c(F)cc32)CN1C(=O)C(c1ccccc1)c1ccccc1", "note": "[Compound 31, (2S,4S)-4-(7,8-Difluoro-2,3,4,5-tetrahydro-1H-benzo[b]azepin-1-yl)-1-(2,2-diphenylacetyl)-2-methylpyrrolidine-2-carboxylic acid]", "values": [{"measurement": "Ki", "setting": "human AT2 receptor; [2]", "value": 11.8, "unit": "nM"}]}, {"smiles": "O=C(O)[C@@H]1C[C@H](N2CCCOc3cc(F)ccc32)CN1C(=O)C(c1ccccc1)c1ccccc1", "note": "[Compound 9, (2S,4S)-1-(2,2-diphenylacetyl)-4-(8-fluoro-3,4-dihydrobenzo[b][1,4]oxazepin-5(2H)-yl)pyrrolidine-2-carboxylic acid]", "values": [{"measurement": "Ki", "setting": "human AT2 receptor; [2]", "value": 3.1, "unit": "nM"}]}, {"smiles": "CN(C)S(=O)(=O)NC(=O)[C@@H]1C[C@H](N2CCCOc3cc(F)c(F)cc32)CN1C(=O)C(c1ccccc1)c1ccccc1", "note": "[Compound 39, (2S,4S)-4-(7,8-Difluoro-3,4-dihydrobenzo[b][1,4]oxazepin-5(2H)-yl)-N—(N,N-dimethylsulfamoyl)-1-(2,2-diphenylacetyl)pyrrolidine-2-carboxamide]", "values": [{"measurement": "Ki", "setting": "human AT2 receptor; [2]", "value": 10.2, "unit": "nM"}]}, {"smiles": "O=C(O)[C@@H]1C[C@H](N2CCOCc3ccccc32)CN1C(=O)C(c1ccccc1)c1ccccc1", "note": "[Compound 10, (2S,4S)-4-(2,3-Dihydrobenzo[e][1,4]oxazepin-1(5H)-yl)-1-(2,2-diphenylacetyl)pyrrolidine-2-carboxylic acid]", "values": [{"measurement": "Ki", "setting": "human AT2 receptor; [2]", "value": 148, "unit": "nM"}]}, {"smiles": "O=C(O)[C@@H]1C[C@H](N2CCCCc3ccccc32)CN1C(=O)C(c1ccccc1)c1ccccc1", "note": "[Compound 1, (2S,4S)-1-(2,2-Diphenylacetyl)-4-(2,3,4,5-tetrahydro-1H-benzo[b]azepin-1-yl)pyrrolidine-2-carboxylic acid]", "values": [{"measurement": "Ki", "setting": "human AT2 receptor; [2]", "value": 2.7, "unit": "nM"}]}]}
